Patent US20260297070A1, “CYCLIC [COMPOUND LEFT OUT] WRN INHIBITORS” (Nimbus Wadjet, Inc., priority 2023, published 2026)
pIC50: −log10 of the molar value.

The molecules below were run against T1, human Werner helicase (WRN-BV08, Uniprot Q14191, amino acids 517-1235 with L1074F point mutation) (Homo sapiens, UniProt Q14191, L1074F) (assay: WRN (BV08) ADP-Glo Assay). Conditions: 0.15 nM WRN, 5 μM ATP, 0.1 nM DNA duplex, 15 min preincubation, 60 min at 25° C., pH 7.5, 1% DMSO; read-out: ADP-Glo_hWRN_IC50.
T1 construct: Uniprot Q14191, amino acids 517-1235 with L1074F point mutation; TEV-cleavable 8×His (C, cleaved yes); made in house; host or cells: Sf9 insect cells (baculovirus)
Assay type: biochemical
Summary of the method: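 WRN 0.15 nM + cpd, 15 min 25 °C; add 5 μM ATP / 0.1 nM annealed DNA duplex; 60 min 25 °C; ADP-Glo stop, RLU. Buffer 20 mM Bicine pH 7.5, 1 mM MgCl2, 10 mM KCl, 1 mM TCEP. IC50, 4-parameter fit.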

T1 sequence (Q14191 with tags, fused parts or gaps L1074F limits assumed): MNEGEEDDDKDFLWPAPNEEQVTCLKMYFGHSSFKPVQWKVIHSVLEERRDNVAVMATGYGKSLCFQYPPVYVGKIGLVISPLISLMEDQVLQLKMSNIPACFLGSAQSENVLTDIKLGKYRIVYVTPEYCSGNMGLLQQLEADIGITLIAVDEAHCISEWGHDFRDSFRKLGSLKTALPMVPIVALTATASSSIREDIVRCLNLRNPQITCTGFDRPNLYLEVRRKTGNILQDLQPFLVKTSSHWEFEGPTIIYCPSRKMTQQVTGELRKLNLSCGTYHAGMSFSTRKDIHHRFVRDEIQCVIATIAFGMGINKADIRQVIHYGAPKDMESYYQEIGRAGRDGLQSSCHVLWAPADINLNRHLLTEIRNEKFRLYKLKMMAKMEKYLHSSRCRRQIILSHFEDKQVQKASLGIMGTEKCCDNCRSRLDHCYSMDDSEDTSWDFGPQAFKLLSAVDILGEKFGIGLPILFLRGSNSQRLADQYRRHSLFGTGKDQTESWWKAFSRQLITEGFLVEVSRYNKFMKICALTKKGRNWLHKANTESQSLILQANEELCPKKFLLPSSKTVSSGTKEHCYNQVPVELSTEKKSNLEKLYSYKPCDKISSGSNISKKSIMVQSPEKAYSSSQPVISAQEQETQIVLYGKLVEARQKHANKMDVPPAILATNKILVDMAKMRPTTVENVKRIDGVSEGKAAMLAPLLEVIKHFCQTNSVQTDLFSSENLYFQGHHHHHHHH

pIC50	SMILES
> 6.30	COC(C(=O)N(Cc1ccnc(C(C)(C)O)c1)C1C=CS(=O)(=O)C1)c1ccc(-c2ccc(F)c(F)c2)cc1F (centres unmarked) [I-18, N-(1,1-dioxo-2,3-dihydro-1lambda6-thiophen-3-yl)-N-{[2-(2-hydroxypropan-2-yl)pyridin-4-yl]methyl}-2-methoxy-2-{3,3′,4′-trifluoro-[1,1′-biphenyl]-4-yl}acetamide]
< 4.30	O=C(Cn1cc(-c2ccccc2)nn1)N(Cc1ccncc1)C1C=CS(=O)(=O)C1 (centres unmarked) [I-403, N-(1,1-dioxo-2,3-dihydro-1lambda6-thiophen-3-yl)-2-(4-phenyl-1H-1,2,3-triazol-1-yl)-N-[(pyridin-4-yl)methyl]acetamide]
< 4.30	O=C(Cc1ccc2cc[nH]c2c1)N(Cc1ccncc1)C1C=CS(=O)(=O)C1 (centres unmarked) [I-506, N-(1,1-dioxo-2,3-dihydro-1lambda6-thiophen-3-yl)-2-(1H-indol-6-yl)-N-[(pyridin-4-yl)methyl]acetamide]
< 4.30	O=C(CCCc1c[nH]c2ccccc12)N(Cc1ccncc1)C1C=CS(=O)(=O)C1 (centres unmarked) [I-500, N-(1,1-dioxo-2,3-dihydro-1lambda6-thiophen-3-yl)-4-(1H-indol-3-yl)-N-[(pyridin-4-yl)methyl]butanamide]
5.00 to 5.30	COc1cc(CN(C(=O)C(OC2COC2)c2ccc(-c3ccc(F)c(F)c3)cc2F)[C@@H]2C=CS(=O)(=O)C2)ccn1 (stereo partly drawn) [I-752, N-[(3R)-1,1-dioxo-2,3-dihydro-1lambda6-thiophen-3-yl]-N-[(2-methoxypyridin-4-yl)methyl]-2-(oxetan-3-yloxy)-2-{3,3′,4′-trifluoro-[1,1′-biphenyl]-4-yl}acetamide]
< 4.30	COc1cc(CN(C(=O)Cc2ccc(-c3ccc(F)c(F)c3)cc2F)C2C=CS(=O)(=O)C2)ccn1 (single isomer, unassigned) [I-400]
< 4.30	O=C(CCc1ccc(-n2cccc2)cc1)N(Cc1ccncc1)C1C=CS(=O)(=O)C1 (centres unmarked) [I-519, N-(1,1-dioxo-2,3-dihydro-1lambda6-thiophen-3-yl)-N-[(pyridin-4-yl)methyl]-3-[4-(1H-pyrrol-1-yl)phenyl]propanamide]
5.30 to 6.30	O=C(Cc1ccc(-n2cccc2)cc1F)N(Cc1ccc(Br)cc1)C1C=CS(=O)(=O)C1 (centres unmarked) [I-122, N-[(4-bromophenyl)methyl]-N-(1,1-dioxo-2,3-dihydro-1lambda6-thiophen-3-yl)-2-[2-fluoro-4-(1H-pyrrol-1-yl)phenyl]acetamide]
< 4.30	O=C([C@H]1[C@@H]2CCC[C@@H]21)N(Cc1ccncc1)C1C=CS(=O)(=O)C1 (stereo partly drawn) [I-583, (1R,5S,6R)-N-(1,1-dioxo-2,3-dihydro-1lambda6-thiophen-3-yl)-N-[(pyridin-4-yl)methyl]bicyclo[3.1.0]hexane-6-carboxamide]
> 6.30	CC(C)(O)c1cc(CN(C(=O)C(c2ccc(-c3ccc(F)c(F)c3)cc2F)n2ccnn2)[C@@H]2C=CS(=O)(=O)C2)ccn1 (single isomer, unassigned) [I-800]
5.30 to 6.30	CN(CCc1ccncc1)C(=O)c1ccc(CN(C(=O)Cc2ccc(-c3ccc(F)c(F)c3)cc2F)C2C=CS(=O)(=O)C2)cc1 (centres unmarked) [I-791, 4-{[N-(1,1-dioxo-2,3-dihydro-1lambda6-thiophen-3-yl)-2-{3,3′,4′-trifluoro-[1,1′-biphenyl]-4-yl}acetamido]methyl}-N-methyl-N-[2-(pyridin-4-yl)ethyl]benzamide]
5.30 to 6.30	Cc1cccn1-c1ccc(CC(=O)N(Cc2ccnc(C3(O)CC3)c2)C2C=CS(=O)(=O)C2)c(F)c1 (centres unmarked) [I-90, N-(1,1-dioxo-2,3-dihydro-1lambda6-thiophen-3-yl)-2-[2-fluoro-4-(2-methyl-1H-pyrrol-1-yl)phenyl]-N-{[2-(1-hydroxycyclopropyl)pyridin-4-yl]methyl}acetamide]
5.30 to 6.30	CC(C)c1ccc(CC(=O)N(Cc2ccncc2)C2C=CS(=O)(=O)C2)cc1 (centres unmarked) [I-197, N-(1,1-dioxo-2,3-dihydro-1lambda6-thiophen-3-yl)-2-[4-(propan-2-yl)phenyl]-N-[(pyridin-4-yl)methyl]acetamide]
> 6.30	CC(C)(O)c1cc(CN(C(=O)Cc2ccc(-c3ccc(F)c(F)c3)cc2F)C2C=CS(=O)(=O)C2)ccn1 (centres unmarked) [I-32, N-(1,1-dioxo-2,3-dihydro-1lambda6-thiophen-3-yl)-N-{[2-(2-hydroxypropan-2-yl)pyridin-4-yl]methyl}-2-{3,3′,4′-trifluoro-[1,1′-biphenyl]-4-yl}acetamide]
< 4.30	COC(C(=O)N(Cc1ccncc1)C1C=CS(=O)(=O)C1)c1ccc(-c2ccc(F)cc2)cc1 (single isomer, unassigned) [I-476, (2R*)-N-[(3R**)-1,1-dioxo-2,3-dihydro-1lambda6-thiophen-3-yl]-2-{4′-fluoro-[1,1′-biphenyl]-4-yl}-2-methoxy-N-[(pyridin-4-yl)methyl]acetamide]
> 6.30	CC(C)(O)c1cc(CN(C(=O)Cn2cc3cc(C(F)(F)F)ccc3n2)C2C=CS(=O)(=O)C2)ccn1 (single isomer, unassigned) [I-676]
5.30 to 6.30	COC(C(=O)N(Cc1ccnc(C(C)(C)O)c1)C1C=CS(=O)(=O)C1)c1ccc(-c2ccc(F)cc2)cc1F (single isomer, unassigned) [I-199, (2R*)-2-{3,4′-difluoro-[1,1′-biphenyl]-4-yl}-N-[(3R**)-1,1-dioxo-2,3-dihydro-1lambda6-thiophen-3-yl]-N-{[2-(2-hydroxypropan-2-yl)pyridin-4-yl]methyl}-2-methoxyacetamide]
5.30 to 6.30	COc1cc(CN(C(=O)Cc2ccc(S(F)(F)(F)(F)F)cc2)C2C=CS(=O)(=O)C2)ncn1 (centres unmarked) [I-600, N-(1,1-dioxo-2,3-dihydro-1lambda6-thiophen-3-yl)-N-[(6-methoxypyrimidin-4-yl)methyl]-2-[4-(pentafluoro-lambda6-sulfanyl)phenyl]acetamide]
5.30 to 6.30	CN(Cc1ccncc1)C(=O)c1ccc(CN(C(=O)Cc2ccc(-c3ccc(F)c(F)c3)cc2F)C2C=CS(=O)(=O)C2)cc1 (centres unmarked) [I-778, 4-{[N-(1,1-dioxo-2,3-dihydro-1lambda6-thiophen-3-yl)-2-{3,3′,4′-trifluoro-[1,1′-biphenyl]-4-yl}acetamido]methyl}-N-methyl-N-[(pyridin-4-yl)methyl]benzamide]
> 6.30	COc1cc(CN(C(=O)Cn2cc(-c3cc(F)c(F)c(F)c3)cn2)[C@@H]2C=CS(=O)(=O)C2)ccn1 [I-764, N-[(3R)-1,1-dioxo-2,3-dihydro-1lambda6-thiophen-3-yl]-N-[(2-methoxypyridin-4-yl)methyl]-2-[4-(3,4,5-trifluorophenyl)-1H-pyrazol-1-yl]acetamide]
5.00 to 5.30	O=C(Cc1ccc(-n2cccc2)cc1)N(Cc1ccncc1Cl)C1C=CS(=O)(=O)C1 (centres unmarked) [I-228, N-[(3-chloropyridin-4-yl)methyl]-N-(1,1-dioxo-2,3-dihydro-1lambda6-thiophen-3-yl)-2-[4-(1H-pyrrol-1-yl)phenyl]acetamide]
< 4.30	O=C(Cn1cc(-c2cc(F)c(F)c(F)c2)cn1)OCC1(c2csc(CNC3C=CS(=O)(=O)C3)n2)CC1 (centres unmarked) [I-823, [1-(2-{[(1,1-dioxo-2,3-dihydro-1lambda6-thiophen-3-yl)amino]methyl}-1,3-thiazol-4-yl)cyclopropyl]methyl 2-[4-(3,4,5-trifluorophenyl)-1H-pyrazol-1-yl]acetate]
5.30 to 6.30	COc1cc(CN(C(=O)C2Cc3cc(-n4cccc4C)ccc3O2)C2C=CS(=O)(=O)C2)ccn1 (centres unmarked) [I-109, N-(1,1-dioxido-2,3-dihydrothiophen-3-yl)-N-((2-methoxypyridin-4-yl)methyl)-5-(2-methyl-1H-pyrrol-1-yl)-2,3-dihydrobenzofuran-2-carboxamide]
